“And” between values parts separate entries of the source, which are not always exact repeats. Equal values may be shown once. Toxic doses and inconclusive results are not listed. Cut-off read from the data, not from the text of the source: active = T/C of 150% or more; inactive = T/C below 125%.
Tested on: L1210 leukemia ip in BDF1 mice, survival T/C
Assay: NCI In Vivo Anticancer Drug Screen. Data for tumor model L1210 Leukemia (intraperitoneal) in B6D2F1 (BDF1) mice
Conditions: endpoint: mean survival time, higher = longer survival
Method in brief: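 Transplantable tumor model; survival measured in treated vs vehicle control mice. Value = treated/control.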

[1] = dose: 100.0 mg/kg/injection, schedule: Q04DX002 (ip), vehicle: Klucel (hydroxypropylcellulose) (HPC)
[2] = dose: 200.0 mg/kg/injection, schedule: Q04DX002 (ip), vehicle: Klucel (hydroxypropylcellulose) (HPC)
[3] = dose: 400.0 mg/kg/injection, schedule: Q04DX002 (ip), vehicle: Klucel (hydroxypropylcellulose) (HPC)
[4] = dose: 50.0 mg/kg/injection, schedule: Q04DX003 (ip), vehicle: saline
[5] = dose: 100.0 mg/kg/injection, schedule: Q01DX001 (ip), vehicle: saline
[6] = dose: 200.0 mg/kg/injection, schedule: Q01DX001 (ip), vehicle: saline
[7] = dose: 100.0 mg/kg/injection, schedule: Q01DX001 (ip), vehicle: carboxymethylcellulose (CMC)
[8] = dose: 200.0 mg/kg/injection, schedule: Q01DX001 (ip), vehicle: carboxymethylcellulose (CMC)
[9] = dose: 400.0 mg/kg/injection, schedule: Q01DX001 (ip), vehicle: carboxymethylcellulose (CMC)
[10] = dose: 100.0 mg/kg/injection, schedule: Q04DX003 (ip), vehicle: Klucel (hydroxypropylcellulose) (HPC)
[11] = dose: 50.0 mg/kg/injection, schedule: Q04DX002 (ip), vehicle: saline with Tween-80
[12] = dose: 200.0 mg/kg/injection, schedule: Q04DX003 (ip), vehicle: Klucel (hydroxypropylcellulose) (HPC)
[13] = dose: 100.0 mg/kg/injection, schedule: Q01DX001 (ip), vehicle: Klucel (hydroxypropylcellulose) (HPC)

Measured: T/C

COC(=O)C12C3C=CC(O3)C1(C(=O)OC)C1C=CC2O1 (stereo not drawn)
inactive: dose: 87.5 mg/kg/injection, schedule: Q01DX009 (ip), vehicle: Klucel (hydroxypropylcellulose) (HPC) 100 % of control | dose: 175.0 mg/kg/injection, schedule: Q01DX009 (ip), vehicle: Klucel (hydroxypropylcellulose) (HPC) 97 % of control | dose: 350.0 mg/kg/injection, schedule: Q01DX009 (ip), vehicle: Klucel (hydroxypropylcellulose) (HPC) 101 % of control

C=C1c2ccccc2N(C)C1(COc1ccc(Cl)c(C)c1)OC(=O)c1cccc(Cl)c1 (stereo not drawn)
inactive: [1] 95 % of control | [2] 95 % of control | [3] 88 % of control

COc1ccc(/C=C(\C#N)c2ccc([N+](=O)[O-])cc2)cc1[N+](=O)[O-]
inactive: [1] 105 % of control | [2] 105 % of control | [3] 102 % of control

CCOc1ccccc1/C=N\N=C(N/N=C/c1ccccc1OCC)N/N=C/c1ccccc1OCC
inactive: dose: 60.0 mg/kg/injection, schedule: Q01DX Z (oral), vehicle: saline 91 % of control | dose: 120.0 mg/kg/injection, schedule: Q01DX Z (oral), vehicle: saline 100 % of control | dose: 240.0 mg/kg/injection, schedule: Q01DX Z (oral), vehicle: saline 95 % of control | dose: 480.0 mg/kg/injection, schedule: Q01DX Z (oral), vehicle: saline 95 % of control

CC1c2ccccc2N(CCCN(C)C)c2ccccc21
inactive: dose: 4.0 mg/kg/injection, schedule: Q01DX015 (ip), vehicle: saline 105 % of control | dose: 8.0 mg/kg/injection, schedule: Q01DX015 (ip), vehicle: saline 103 % of control | dose: 16.0 mg/kg/injection, schedule: Q01DX015 (ip), vehicle: saline 97 % of control | dose: 32.0 mg/kg/injection, schedule: Q01DX015 (ip), vehicle: saline 97 % of control and 100 % of control | [4] 108 % of control | dose: 64.0 mg/kg/injection, schedule: Q01DX015 (ip), vehicle: saline 97 % of control | dose: 128.0 mg/kg/injection, schedule: Q01DX015 (ip), vehicle: saline 92 % of control

CN1C(=O)C(Br)=C(Br)C1(O)c1cccnc1 (stereo not drawn)
inactive: dose: 50.0 mg/kg/injection, schedule: Q01DX001 (ip), vehicle: saline 104 % of control | [5] 104 % of control | [6] 95 % of control | dose: 400.0 mg/kg/injection, schedule: Q01DX001 (ip), vehicle: saline 98 % of control

COC(=O)C(Cc1c[nH]c2ccccc12)NC(=O)C(NC(=O)OC(C)(C)C)C(C)C (stereo not drawn)
inactive: [7] 100 % of control | [8] 94 % of control | [9] 92 % of control

CC1CCCCC1(C)C1C=CC(=O)OC1(C)C (stereo not drawn)
inactive: dose: 25.0 mg/kg/injection, schedule: Q04DX003 (ip), vehicle: saline 97 % of control | [4] 97 % of control | dose: 100.0 mg/kg/injection, schedule: Q04DX003 (ip), vehicle: saline 97 % of control

Cc1ccc(Cl)c([N+](=O)[O-])c1N
inactive: dose: 100.0 mg/kg/injection, schedule: Q01DX009 (ip), vehicle: saline with Tween-80 92 % of control | dose: 100.0 mg/kg/injection, schedule: Q04DX003 (ip), vehicle: saline with Tween-80 106 % of control | dose: 200.0 mg/kg/injection, schedule: Q01DX009 (ip), vehicle: saline with Tween-80 95 % of control | dose: 200.0 mg/kg/injection, schedule: Q04DX003 (ip), vehicle: saline with Tween-80 104 % of control | dose: 400.0 mg/kg/injection, schedule: Q01DX009 (ip), vehicle: saline with Tween-80 108 % of control | dose: 400.0 mg/kg/injection, schedule: Q04DX003 (ip), vehicle: saline with Tween-80 104 % of control

C[C@@H]1C[C@@]2(C)[C@@H](CC[C@@H]3[C@@H]2CC[C@]2(C)[C@@H](O)CC[C@@H]32)C[C@@H]1O
inactive: dose: 62.5 mg/kg/injection, schedule: Q01DX015 (sc), vehicle: steriod suspending solution 100 % of control | dose: 125.0 mg/kg/injection, schedule: Q01DX015 (sc), vehicle: steriod suspending solution 94 % of control | dose: 250.0 mg/kg/injection, schedule: Q01DX015 (sc), vehicle: steriod suspending solution 102 % of control | dose: 500.0 mg/kg/injection, schedule: Q01DX015 (sc), vehicle: steriod suspending solution 94 % of control

Cc1ccc(S(=O)(=O)NS(=O)(=O)c2ccc(C)cc2)cc1
inactive: [5] 101 % of control | [10] 100 % of control | [6] 106 % of control

O=S(=O)(Nc1c(Cl)c(Cl)c(NS(=O)(=O)c2ccccc2)c(Cl)c1Cl)c1ccccc1
inactive: dose: 100.0 mg/kg/injection, schedule: Q01DX009 (ip), vehicle: Klucel (hydroxypropylcellulose) (HPC) 103 % of control | dose: 200.0 mg/kg/injection, schedule: Q01DX009 (ip), vehicle: Klucel (hydroxypropylcellulose) (HPC) 111 % of control | dose: 400.0 mg/kg/injection, schedule: Q01DX009 (ip), vehicle: Klucel (hydroxypropylcellulose) (HPC) 103 % of control

CC(=O)Nc1ccc2ccc3ccc4ccccc4c3c2c1
inactive: dose: 3.12 mg/kg/injection, schedule: Q04DX002 (ip), vehicle: saline with Tween-80 111 % of control | dose: 6.25 mg/kg/injection, schedule: Q04DX002 (ip), vehicle: saline with Tween-80 111 % of control | dose: 12.5 mg/kg/injection, schedule: Q04DX002 (ip), vehicle: saline with Tween-80 108 % of control | dose: 25.0 mg/kg/injection, schedule: Q04DX002 (ip), vehicle: saline with Tween-80 103 % of control | [11] 102 % of control

ICC1CCC(CI)CC1 (stereo not drawn)
inactive: [7] 102 % of control | [8] 102 % of control | [9] 102 % of control

Cc1ccc(S(=O)(=O)OCC2CCC(COS(=O)(=O)c3ccc(C)cc3)O2)cc1 (stereo not drawn)
inactive: [10] 103 % of control | [12] 100 % of control

Cc1nnnn1C1CCCCC1I (stereo not drawn)
inactive: dose: 10.0 mg/kg/injection, schedule: Q01DX001 (ip), vehicle: other 102 % of control | dose: 20.0 mg/kg/injection, schedule: Q01DX001 (ip), vehicle: other 88 % of control

COC(=O)c1[nH]nc(-c2ccccc2-c2ccccc2C(=O)O)c1C(=O)OC
inactive: [1] 97 % of control | [2] 108 % of control | [3] 105 % of control

CC1CC(C)(C)N=C(CCCO)O1 (stereo not drawn)
inactive: [11] 104 % of control | dose: 100.0 mg/kg/injection, schedule: Q04DX002 (ip), vehicle: saline with Tween-80 96 % of control | dose: 200.0 mg/kg/injection, schedule: Q04DX002 (ip), vehicle: saline with Tween-80 104 % of control | dose: 400.0 mg/kg/injection, schedule: Q04DX002 (ip), vehicle: saline with Tween-80 100 % of control

C/C(=C1\SC(=S)N(C2OC(CO)C(O)C(O)C2O)C1=O)c1ccco1 (stereo not drawn)
inactive: dose: 12.5 mg/kg/injection, schedule: Q01DX005 (ip), vehicle: water 109 % of control | dose: 25.0 mg/kg/injection, schedule: Q01DX005 (ip), vehicle: water 95 % of control | dose: 50.0 mg/kg/injection, schedule: Q01DX005 (ip), vehicle: water 111 % of control | dose: 100.0 mg/kg/injection, schedule: Q01DX005 (ip), vehicle: water 98 % of control | dose: 200.0 mg/kg/injection, schedule: Q01DX005 (ip), vehicle: water 93 % of control

O=C(O)c1ccc(Oc2ccc([N+](=O)[O-])cc2)cc1
inactive: [13] 94 % of control | [10] 102 % of control | dose: 200.0 mg/kg/injection, schedule: Q01DX001 (ip), vehicle: Klucel (hydroxypropylcellulose) (HPC) 102 % of control | [12] 92 % of control | dose: 400.0 mg/kg/injection, schedule: Q01DX001 (ip), vehicle: Klucel (hydroxypropylcellulose) (HPC) 108 % of control | dose: 400.0 mg/kg/injection, schedule: Q04DX003 (ip), vehicle: Klucel (hydroxypropylcellulose) (HPC) 96 % of control

[B-][N+](C)(C)C
inactive: dose: 3.13 mg/kg/injection, schedule: Q01DX001 (ip), vehicle: Klucel (hydroxypropylcellulose) (HPC) 99 % of control | dose: 6.25 mg/kg/injection, schedule: Q01DX001 (ip), vehicle: Klucel (hydroxypropylcellulose) (HPC) 101 % of control | dose: 12.5 mg/kg/injection, schedule: Q01DX001 (ip), vehicle: Klucel (hydroxypropylcellulose) (HPC) 99 % of control | dose: 25.0 mg/kg/injection, schedule: Q01DX001 (ip), vehicle: Klucel (hydroxypropylcellulose) (HPC) 106 % of control | dose: 50.0 mg/kg/injection, schedule: Q01DX001 (ip), vehicle: Klucel (hydroxypropylcellulose) (HPC) 109 % of control | [13] 103 % of control

Cc1cc(=O)oc2cc(OS(C)(=O)=O)ccc12
inactive: [7] 113 % of control | [8] 107 % of control | [9] 98 % of control

Cc1c2c(c(C)c3c4c(oc13)CCCC4)C=NCC2
inactive: [7] 95 % of control | [8] 92 % of control | [9] 92 % of control

Source: PubChem BioAssay AID248 (DTP/NCI, 2004)
